Where “and” joins values, the source holds several entries; their conditions need not be identical. Identical values can stand only once.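 Protocol summary: plate cells (96-well), add compound at 5 concentrations, incubate 48 h, interpolate endpoints linearly. GI50 is the concentration that inhibits growth by half. At the TGI there is no net growth.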
Key:
Experiment in all cases: NCI tumour cell line growth inhibition, 48 h
SK-OV-3 ovarian = system: SK-OV-3 ovarian
HOP-92 NSCLC = system: HOP-92 NSCLC
SN12C renal = system: SN12C renal
NCI-H23 lung = system: NCI-H23 lung
M14 melanoma = system: M14 melanoma
PC-3 prostate = system: PC-3 prostate
SF-268 CNS = system: SF-268 CNS
COLO 205 colon = system: COLO 205 colon
DU-145 prostate = system: DU-145 prostate
A498 renal = system: A498 renal

| Structure (SMILES) | GI50 (SK-OV-3 ovarian) | TGI (SK-OV-3 ovarian) | GI50 (HOP-92 NSCLC) | TGI (HOP-92 NSCLC) | GI50 (SN12C renal) | TGI (SN12C renal) | GI50 (NCI-H23 lung) | TGI (NCI-H23 lung) | GI50 (M14 melanoma) | TGI (M14 melanoma) | GI50 (PC-3 prostate) | TGI (PC-3 prostate) | GI50 (SF-268 CNS) | TGI (SF-268 CNS) | GI50 (COLO 205 colon) | TGI (COLO 205 colon) | GI50 (DU-145 prostate) | TGI (DU-145 prostate) | GI50 (A498 renal) | TGI (A498 renal) |
| --- | --- | --- | --- | --- | --- | --- | --- | --- | --- | --- | --- | --- | --- | --- | --- | --- | --- | --- | --- | --- |
| COc1cccc(/C=N/NC(=O)c2ccccc2Nc2ccnc(C(F)(F)F)c2)c1O | 0.583 µM | 31 µM | 0.342 µM | 21.5 µM | 0.783 µM | > 73.7 µM | 0.904 µM | 46.9 µM | 0.375 µM | > 23.2 µM | 1.47 µM | > 33.1 µM | 0.488 µM | > 51.1 µM | 0.353 µM | > 53.8 µM | 0.543 µM | > 47 µM | 5.11 µM | > 42.8 µM |
| CC1OC(n2cc(F)c(=O)[nH]c2=O)CCC1O (stereo unspecified) |  | > 100 µM |  | > 100 µM |  | > 100 µM |  | > 100 µM |  | > 100 µM |  | > 100 µM |  | > 100 µM |  | > 100 µM |  | > 100 µM |  | > 100 µM |
| O=C(CN1CCOCC1)Nc1ccc(Cn2nnc3c2C(=O)c2nnn(Cc4ccc(NC(=O)CN5CCOCC5)cc4)c2C3=O)cc1 | 2.68 µM | 8.28 µM | 0.822 µM | 2.34 µM | 0.259 µM | 0.733 µM | 0.802 µM | 3.61 µM | 0.596 µM | 1.88 µM | 0.644 µM | 5.63 µM | 0.334 µM | 1.94 µM | 0.199 µM | 0.463 µM | 1.38 µM | 2.7 µM | 1.97 µM | 4.39 µM |
| CCOC(=O)/C=C(/C(=O)OCC)n1cc(Cl)c(=O)n(CC(=O)OCC)c1=O | 41.4 µM | > 100 µM |  | 9.3 µM |  | 10.9 µM and 32.7 µM | 20 µM | 10.8 µM and 41.5 µM | 18 µM | 10.4 µM and 40.2 µM | 19.5 µM | 9.64 µM and 34.6 µM | 24 µM | 12.2 µM and 41.4 µM | 1.32 µM | 2.81 µM and 2.59 µM |  | 8.47 µM and 31.3 µM |  | 34.6 µM |
| Cc1nc2cccc([N+](=O)[O-])c2c(NCCCN(C)C)c1C |  | > 100 µM |  | > 100 µM |  | 16.1 µM |  | > 31.6 µM |  | > 100 µM |  | > 50.8 µM |  | > 100 µM |  | 39.5 µM |  | > 100 µM |  | > 54 µM |
| COc1ccc(C2=NN(C(=O)c3cc(OC)c(OC)c(OC)c3)C(c3ccc(C#N)cc3)C2)cc1OC (stereo unspecified) | 0.872 µM | 8.32 µM | 0.113 µM | 0.792 µM | 4.47 µM | > 100 µM | 3.07 µM | > 74 µM | 1.8 µM | 10.4 µM | 1.94 µM | > 52.3 µM | 2.52 µM | > 66.6 µM | 1.47 µM | 4.03 µM | 2.98 µM | > 39 µM | 0.374 µM | 4.34 µM |
| CC1OC(O[C@H]2C[C@@H](O)[C@]3(CO)[C@H]4[C@H](O)C[C@]5(C)[C@@H](C6=CC(=O)OC6)CC[C@]5(O)[C@@H]4CC[C@]3(O)C2)C(O)C(O)C1O (stereo partly specified) | 18.8 µM | 33.8 µM | 24.4 µM | 57.6 µM | 20.6 µM | 40.6 µM | 21.5 µM | 41.8 µM | 27.7 µM | 87.5 µM | 20.4 µM | 41.4 µM | 18.9 µM | 33.5 µM | 18.5 µM | 33.7 µM | 19.3 µM | 34 µM | 20.4 µM | 39 µM |
| CN(C)CCNc1cc(-c2ccccc2)nc2ccccc12 | 9.24 µM | 39 µM | 3.21 µM | 21.3 µM | 6.55 µM | 44.1 µM | 11.2 µM | 37.6 µM | 10.3 µM | 24.8 µM | 4.61 µM | 24.9 µM | 4.98 µM | 22.7 µM | 2.92 µM | 7.74 µM | 5.04 µM | 22.2 µM | 2.01 µM | 13.6 µM |
| Cc1nn(CN2CCN(C)CC2)c(=S)n1/N=C/c1cccc2ccccc12 | 16 µM | 42.3 µM | 19.9 µM | 46.5 µM | 24.4 µM | 39.2 µM | 21.7 µM | 56.2 µM | 18.6 µM | 39.3 µM | 22.1 µM | 64 µM | 24.5 µM | 68.2 µM | 10.8 µM | 26.6 µM | 31.7 µM | > 100 µM | 16.7 µM | 34.7 µM |
| Cc1c(C(=O)N/N=C/c2ccc(Cl)cc2)nnn1-c1ccnc2c(C(F)(F)F)cccc12 | 11.6 µM | 25.2 µM | 3.62 µM | 16.2 µM | 3.51 µM | 15.5 µM | 13.5 µM | 35.9 µM | 4.45 µM | 18.9 µM | 3.04 µM | 11.3 µM | 11.7 µM | 28.2 µM | 1.55 µM | 3.58 µM | 4.89 µM | 20.5 µM | 15.9 µM | 45.1 µM |
| C[C@]12CC[C@H](O)CC1=CC[C@@H]1[C@@H]2CC[C@]2(C)C(c3cccnc3)=CC[C@@H]12 | > 33.8 µM | > 100 µM | 8.7 µM | > 55.9 µM | > 100 µM | > 100 µM | 12.2 µM | > 100 µM | > 100 µM | > 100 µM | > 100 µM | > 100 µM | 15.7 µM | > 100 µM | > 100 µM | > 100 µM | > 100 µM | > 100 µM | > 27.8 µM | > 100 µM |

— PubChem BioAssay (NCI)
